Species on record: Rattus norvegicus
Experiment: DrugMatrix - Regimen: Daily Repeat
Format: toxicity, organism-based, Sprague-Dawley
Parameters: regimen Daily Repeat, gender Male, age 6-8 weeks
Conditions: in vivo, po, route oral GAVAGE; for ABSOLUTE BASOPHIL / BASOPHIL / NUCLEATED RED BLOOD CELLS / ABSOLUTE EOSINOPHIL / ABSOLUTE LYMPHOCYTE / ABSOLUTE MONOCYTE / ABSOLUTE SEGMENTED NEUTROPHIL / EOSINOPHIL / ERYTHROCYTE COUNT / HEMATOCRIT / LEUKOCYTE COUNT / MEAN CORPUSCULAR HEMOGLOBIN / MEAN CORPUSCULAR HEMOGLOBIN CONCENTRATION / MEAN CORPUSCULAR VOLUME / MONOCYTE / NEUTROPHIL / PLATELET COUNT: tissue Blood; for TOTAL BILIRUBIN / ALANINE AMINOTRANSFERASE / ALBUMIN / ALKALINE PHOSPHATASE / ASPARTATE AMINOTRANSFERASE / BLOOD UREA NITROGEN / CHLORIDE / CHOLESTEROL / CREATINE PHOSPHOKINASE / CREATININE / GLUCOSE / LACTATE DEHYDROGENASE / LIPASE / PHOSPHORUS / POTASSIUM / URIC ACID: tissue Plasma
[1] = 0 mg/kg, 72 h, dose level Control, time 3 day, […]
[2] = 0 mg/kg, 120 h, dose level Control, time 5 day, […]
[3] = 1 mg/kg, 72 h, dose level Low, time 3 day, […]
[4] = 1 mg/kg, 120 h, dose level Low, time 5 day, […]
[5] = 150 mg/kg, 72 h, dose level M1, time 3 day, […]
[6] = 300 mg/kg, 72 h, dose level High, time 3 day, […]
[7] = 300 mg/kg, 120 h, dose level High, time 5 day, […]

C[C@@H]1C[C@H]2[C@@H]3CCC4=CC(=O)C=C[C@]4(C)[C@@]3(F)[C@@H](O)C[C@]2(C)[C@@]1(O)C(=O)CO [DEXAMETHASONE]
ABSOLUTE BASOPHIL [1]: 0 CELLS/uL
BASOPHIL [1]: 0%
NUCLEATED RED BLOOD CELLS [1]: 0 /100WBC
TOTAL BILIRUBIN [1]: 0.2 mg/dL
ABSOLUTE BASOPHIL [2]: 0 CELLS/uL
BASOPHIL [2]: 0%
ABSOLUTE BASOPHIL [3]: 0 CELLS/uL
ABSOLUTE EOSINOPHIL [3]: 0 CELLS/uL
ABSOLUTE LYMPHOCYTE [3]: 386.33 CELLS/uL
ABSOLUTE MONOCYTE [3]: 54.33 CELLS/uL
ABSOLUTE SEGMENTED NEUTROPHIL [3]: 12226 CELLS/uL
BASOPHIL [3]: 0%
EOSINOPHIL [3]: 0%
ERYTHROCYTE COUNT [3]: 4.89 x10E6/uL
HEMATOCRIT [3]: 30.93%
LEUKOCYTE COUNT [3]: 12.67 x10E3/uL
MEAN CORPUSCULAR HEMOGLOBIN [3]: 25.53 pg
MEAN CORPUSCULAR HEMOGLOBIN CONCENTRATION [3]: 40.3 G/DL
MEAN CORPUSCULAR VOLUME [3]: 63.33 fL
MONOCYTE [3]: 0.33%
NEUTROPHIL [3]: 96%
NUCLEATED RED BLOOD CELLS [3]: 1 /100WBC
PLATELET COUNT [3]: 1088 x10E3/uL
ALANINE AMINOTRANSFERASE [3]: 118.33 u/L
ALBUMIN [3]: 4.1 G/DL
ALKALINE PHOSPHATASE [3]: 632 u/L
ASPARTATE AMINOTRANSFERASE [3]: 203 u/L
BLOOD UREA NITROGEN [3]: 28.33 mg/dL
CHLORIDE [3]: 95 MEQ/L
CHOLESTEROL [3]: 76.33 mg/dL
CREATINE PHOSPHOKINASE [3]: 789 u/L
CREATININE [3]: 0.16 mg/dL
GLUCOSE [3]: 441 mg/dL
LACTATE DEHYDROGENASE [3]: 205.67 u/L
LIPASE [3]: 45.67 u/L
PHOSPHORUS [3]: 10.57 mg/dL
POTASSIUM [3]: 5.98 MEQ/L
TOTAL BILIRUBIN [3]: 0.33 mg/dL
URIC ACID [3]: 1.2 mg/dL
ABSOLUTE BASOPHIL [4]: 0 CELLS/uL
ABSOLUTE EOSINOPHIL [4]: 0 CELLS/uL
ABSOLUTE LYMPHOCYTE [4]: 716 CELLS/uL
ABSOLUTE MONOCYTE [4]: 233 CELLS/uL
ABSOLUTE SEGMENTED NEUTROPHIL [4]: 18184.33 CELLS/uL
BASOPHIL [4]: 0%
EOSINOPHIL [4]: 0%
ERYTHROCYTE COUNT [4]: 3.43 x10E6/uL
HEMATOCRIT [4]: 25.35%
LEUKOCYTE COUNT [4]: 19.13 x10E3/uL
MEAN CORPUSCULAR HEMOGLOBIN [4]: 24.9 pg
MEAN CORPUSCULAR HEMOGLOBIN CONCENTRATION [4]: 40.75 G/DL
MEAN CORPUSCULAR VOLUME [4]: 59.67 fL
MONOCYTE [4]: 1.33%
NEUTROPHIL [4]: 94%
NUCLEATED RED BLOOD CELLS [4]: 3.33 /100WBC
PLATELET COUNT [4]: 832.67 x10E3/uL
ALANINE AMINOTRANSFERASE [4]: 247 u/L
ALBUMIN [4]: 3.87 G/DL
ALKALINE PHOSPHATASE [4]: 684.67 u/L
ASPARTATE AMINOTRANSFERASE [4]: 267.67 u/L
BLOOD UREA NITROGEN [4]: 20 mg/dL
CHLORIDE [4]: 95 MEQ/L
CHOLESTEROL [4]: 149.67 mg/dL
CREATINE PHOSPHOKINASE [4]: 312.33 u/L
CREATININE [4]: 0.11 mg/dL
GLUCOSE [4]: 438.67 mg/dL
LACTATE DEHYDROGENASE [4]: 287.33 u/L
LIPASE [4]: 21.67 u/L
PHOSPHORUS [4]: 9.83 mg/dL
POTASSIUM [4]: 5.94 MEQ/L
TOTAL BILIRUBIN [4]: 0.25 mg/dL
URIC ACID [4]: 1.43 mg/dL
ABSOLUTE BASOPHIL [5]: 0 CELLS/uL
ABSOLUTE EOSINOPHIL [5]: 0 CELLS/uL
ABSOLUTE LYMPHOCYTE [5]: 851.67 CELLS/uL
ABSOLUTE MONOCYTE [5]: 0 CELLS/uL
ABSOLUTE SEGMENTED NEUTROPHIL [5]: 8381.67 CELLS/uL
BASOPHIL [5]: 0%
EOSINOPHIL [5]: 0%
ERYTHROCYTE COUNT [5]: 3.49 x10E6/uL
HEMATOCRIT [5]: 22.2%
LEUKOCYTE COUNT [5]: 9.23 x10E3/uL
MEAN CORPUSCULAR HEMOGLOBIN [5]: 24.87 pg
MEAN CORPUSCULAR HEMOGLOBIN CONCENTRATION [5]: 39.17 G/DL
MEAN CORPUSCULAR VOLUME [5]: 63.47 fL
MONOCYTE [5]: 0%
NEUTROPHIL [5]: 90.33%
NUCLEATED RED BLOOD CELLS [5]: 0 /100WBC
PLATELET COUNT [5]: 661.67 x10E3/uL
ALANINE AMINOTRANSFERASE [5]: 222.67 u/L
ALBUMIN [5]: 4.03 G/DL
ALKALINE PHOSPHATASE [5]: 224 u/L
ASPARTATE AMINOTRANSFERASE [5]: 153.67 u/L
BLOOD UREA NITROGEN [5]: 40.67 mg/dL
CHLORIDE [5]: 88.33 MEQ/L
CREATINE PHOSPHOKINASE [5]: 139 u/L
CREATININE [5]: 0.28 mg/dL
GLUCOSE [5]: 361.33 mg/dL
LACTATE DEHYDROGENASE [5]: 175.33 u/L
LIPASE [5]: 12 u/L
PHOSPHORUS [5]: 7.7 mg/dL
POTASSIUM [5]: 3.29 MEQ/L
TOTAL BILIRUBIN [5]: 0.27 mg/dL
URIC ACID [5]: 0.6 mg/dL
ABSOLUTE BASOPHIL [6]: 0 CELLS/uL
ABSOLUTE EOSINOPHIL [6]: 101.33 CELLS/uL
ABSOLUTE LYMPHOCYTE [6]: 370.67 CELLS/uL
ABSOLUTE MONOCYTE [6]: 0 CELLS/uL
ABSOLUTE SEGMENTED NEUTROPHIL [6]: 13461.33 CELLS/uL
BASOPHIL [6]: 0%
EOSINOPHIL [6]: 0.67%
ERYTHROCYTE COUNT [6]: 4.56 x10E6/uL
HEMATOCRIT [6]: 29.6%
LEUKOCYTE COUNT [6]: 13.93 x10E3/uL
MEAN CORPUSCULAR HEMOGLOBIN [6]: 26.77 pg
MEAN CORPUSCULAR HEMOGLOBIN CONCENTRATION [6]: 41.3 G/DL
MEAN CORPUSCULAR VOLUME [6]: 64.73 fL
MONOCYTE [6]: 0%
NEUTROPHIL [6]: 96.67%
NUCLEATED RED BLOOD CELLS [6]: 3 /100WBC
PLATELET COUNT [6]: 922.33 x10E3/uL
ALANINE AMINOTRANSFERASE [6]: 191 u/L
ALBUMIN [6]: 3.07 G/DL
ALKALINE PHOSPHATASE [6]: 263 u/L
ASPARTATE AMINOTRANSFERASE [6]: 136.33 u/L
BLOOD UREA NITROGEN [6]: 17 mg/dL
CHLORIDE [6]: 90.33 MEQ/L
CHOLESTEROL [6]: 231 mg/dL
CREATINE PHOSPHOKINASE [6]: 714.67 u/L
CREATININE [6]: 0.13 mg/dL
GLUCOSE [6]: 404.67 mg/dL
LACTATE DEHYDROGENASE [6]: 193.33 u/L
LIPASE [6]: 55 u/L
PHOSPHORUS [6]: 10.2 mg/dL
POTASSIUM [6]: 3.86 MEQ/L
TOTAL BILIRUBIN [6]: 1.1 mg/dL
URIC ACID [6]: 1.1 mg/dL
ABSOLUTE BASOPHIL [7]: 0 CELLS/uL
ABSOLUTE EOSINOPHIL [7]: 0 CELLS/uL
ABSOLUTE LYMPHOCYTE [7]: 332 CELLS/uL
ABSOLUTE MONOCYTE [7]: 0 CELLS/uL
ABSOLUTE SEGMENTED NEUTROPHIL [7]: 16268 CELLS/uL
BASOPHIL [7]: 0%
EOSINOPHIL [7]: 0%
ERYTHROCYTE COUNT [7]: 2.89 x10E6/uL
HEMATOCRIT [7]: 17%
LEUKOCYTE COUNT [7]: 16.6 x10E3/uL
MEAN CORPUSCULAR HEMOGLOBIN [7]: 25.3 pg
MEAN CORPUSCULAR HEMOGLOBIN CONCENTRATION [7]: 42.9 G/DL
MEAN CORPUSCULAR VOLUME [7]: 58.9 fL
MONOCYTE [7]: 0%
NEUTROPHIL [7]: 98%
NUCLEATED RED BLOOD CELLS [7]: 0 /100WBC
PLATELET COUNT [7]: 777 x10E3/uL
ALANINE AMINOTRANSFERASE [7]: 1291 u/L
ALBUMIN [7]: 3.2 G/DL
ALKALINE PHOSPHATASE [7]: 579 u/L
ASPARTATE AMINOTRANSFERASE [7]: 470 u/L
BLOOD UREA NITROGEN [7]: 26 mg/dL
CHLORIDE [7]: 87 MEQ/L
CHOLESTEROL [7]: 201 mg/dL
CREATINE PHOSPHOKINASE [7]: 1188 u/L
CREATININE [7]: 0.1 mg/dL
GLUCOSE [7]: 443 mg/dL
LACTATE DEHYDROGENASE [7]: 750 u/L
LIPASE [7]: 9 u/L
PHOSPHORUS [7]: 10.7 mg/dL
POTASSIUM [7]: 2.68 MEQ/L
TOTAL BILIRUBIN [7]: 0.8 mg/dL
URIC ACID [7]: 0.7 mg/dL

COc1ccc(CCN(C)CCCC(C#N)(c2ccc(OC)c(OC)c2)C(C)C)cc1OC (configuration not stated)
POTASSIUM (20 mg/kg, 72 h, dose level Low, time 3 day, vehicle 100 % WATER): 6.68 MEQ/L
POTASSIUM (20 mg/kg, 120 h, dose level Low, time 5 day, vehicle 100 % WATER): 6.29 MEQ/L
